From ChEMBL document CHEMBL4842388, “Discovery of Potent, Selective, and Brain-Penetrant Apoptosis Signal-Regulating Kinase 1 (ASK1) Inhibitors that Modulate Brain Inflammation In Vivo” (J Med Chem, 2021) come the findings set out here.

The source made the active and inactive calls. The calls are words filed in the database; no cut-off is given here.

Assay [1] addresses T1, Mitogen-activated protein kinase kinase kinase 5 (Mus musculus) (UniProt O35099).
T1 sequence (whole entry): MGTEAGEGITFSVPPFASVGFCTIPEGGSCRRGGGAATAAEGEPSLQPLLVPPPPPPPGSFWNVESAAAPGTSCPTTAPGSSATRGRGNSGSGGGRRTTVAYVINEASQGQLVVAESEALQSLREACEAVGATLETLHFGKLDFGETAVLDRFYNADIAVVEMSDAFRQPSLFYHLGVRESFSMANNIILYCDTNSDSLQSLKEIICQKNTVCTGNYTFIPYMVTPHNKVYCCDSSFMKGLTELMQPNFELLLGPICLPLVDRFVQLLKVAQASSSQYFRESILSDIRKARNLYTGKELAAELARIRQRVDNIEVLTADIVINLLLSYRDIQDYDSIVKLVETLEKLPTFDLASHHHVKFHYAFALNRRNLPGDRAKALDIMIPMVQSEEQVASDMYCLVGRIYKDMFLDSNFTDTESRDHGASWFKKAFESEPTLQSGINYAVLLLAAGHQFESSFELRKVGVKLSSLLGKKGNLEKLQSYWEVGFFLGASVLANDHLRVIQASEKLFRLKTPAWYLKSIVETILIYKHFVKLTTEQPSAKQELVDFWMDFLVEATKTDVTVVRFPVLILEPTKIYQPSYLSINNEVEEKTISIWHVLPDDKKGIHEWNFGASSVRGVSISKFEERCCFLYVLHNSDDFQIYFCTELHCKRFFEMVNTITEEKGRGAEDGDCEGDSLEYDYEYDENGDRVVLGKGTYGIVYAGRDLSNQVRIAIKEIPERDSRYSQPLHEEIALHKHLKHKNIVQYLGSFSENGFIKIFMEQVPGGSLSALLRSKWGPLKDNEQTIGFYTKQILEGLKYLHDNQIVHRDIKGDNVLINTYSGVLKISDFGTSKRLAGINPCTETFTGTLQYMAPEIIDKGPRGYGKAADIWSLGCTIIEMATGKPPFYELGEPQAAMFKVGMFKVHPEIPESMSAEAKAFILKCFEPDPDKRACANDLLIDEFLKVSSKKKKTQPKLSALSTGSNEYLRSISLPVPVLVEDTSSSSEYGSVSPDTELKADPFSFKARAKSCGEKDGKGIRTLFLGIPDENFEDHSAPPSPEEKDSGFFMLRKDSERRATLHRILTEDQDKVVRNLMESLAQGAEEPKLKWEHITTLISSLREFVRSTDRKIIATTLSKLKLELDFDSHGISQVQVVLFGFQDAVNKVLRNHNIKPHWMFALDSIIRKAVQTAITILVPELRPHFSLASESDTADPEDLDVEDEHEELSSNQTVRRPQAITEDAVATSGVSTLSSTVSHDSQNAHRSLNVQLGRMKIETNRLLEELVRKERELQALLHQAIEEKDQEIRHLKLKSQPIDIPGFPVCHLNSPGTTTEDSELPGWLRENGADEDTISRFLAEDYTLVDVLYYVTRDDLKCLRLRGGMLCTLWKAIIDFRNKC
Briefly: In vivo inhibition of ASK1 in Tg4510 mouse model of Alzheimer's disease assessed as reduction in MCP-1 levels in cortex at 3 to 30 mg/kg, po BID for 3 days measured after 4 hrs post last dose by ELISA. The settings on record: dose 3-30 mg/kg, time 3.0 day. The format is functional, organism-based.

Assay [2] has as its target T1, Mitogen-activated protein kinase kinase kinase 5 (Mus musculus). Briefly: In vivo inhibition of ASK1 in Tg4510 mouse model of Alzheimer's disease assessed as reduction in KC/GRO levels in cortex at 3 to 30 mg/kg, po BID for 3 days measured after 4 hrs post last dose by ELISA. Type of assay: functional, organism-based. To be noted: dose 3-30 mg/kg, time 3.0 day.
Assay [3] deals with Adenosine receptor A2a (Homo sapiens, UniProt P29274). The assay can be described thus: Inhibition of A2A receptor (unknown origin).
Sequence of Adenosine receptor A2a (P29274 whole entry): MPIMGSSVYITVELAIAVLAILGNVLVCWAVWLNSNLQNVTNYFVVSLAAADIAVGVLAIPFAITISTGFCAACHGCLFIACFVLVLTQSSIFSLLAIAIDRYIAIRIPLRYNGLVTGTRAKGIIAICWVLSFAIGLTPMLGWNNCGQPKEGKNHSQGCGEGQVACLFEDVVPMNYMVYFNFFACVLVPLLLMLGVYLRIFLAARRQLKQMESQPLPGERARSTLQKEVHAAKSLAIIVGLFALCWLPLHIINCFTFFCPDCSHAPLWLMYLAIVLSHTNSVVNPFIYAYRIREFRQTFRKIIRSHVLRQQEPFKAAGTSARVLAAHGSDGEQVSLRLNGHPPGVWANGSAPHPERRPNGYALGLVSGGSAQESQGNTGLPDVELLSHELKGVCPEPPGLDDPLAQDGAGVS
The target of assay [4] is T1, Mitogen-activated protein kinase kinase kinase 5 (Mus musculus). Briefly: In vivo inhibition of ASK1 in Tg4510 mouse model of Alzheimer's disease assessed as reduction in IL-1beta levels in cortex at 3 to 30 mg/kg, po BID for 3 days measured after 4 hrs post last dose by ELISA. Type of assay: functional, organism-based. The settings on record: dose 3-30 mg/kg, time 3.0 day.

For assay [5], the target named is T2, Mitogen-activated protein kinase kinase kinase 5 (Homo sapiens, UniProt Q99683).
T2 sequence (Q99683 whole entry): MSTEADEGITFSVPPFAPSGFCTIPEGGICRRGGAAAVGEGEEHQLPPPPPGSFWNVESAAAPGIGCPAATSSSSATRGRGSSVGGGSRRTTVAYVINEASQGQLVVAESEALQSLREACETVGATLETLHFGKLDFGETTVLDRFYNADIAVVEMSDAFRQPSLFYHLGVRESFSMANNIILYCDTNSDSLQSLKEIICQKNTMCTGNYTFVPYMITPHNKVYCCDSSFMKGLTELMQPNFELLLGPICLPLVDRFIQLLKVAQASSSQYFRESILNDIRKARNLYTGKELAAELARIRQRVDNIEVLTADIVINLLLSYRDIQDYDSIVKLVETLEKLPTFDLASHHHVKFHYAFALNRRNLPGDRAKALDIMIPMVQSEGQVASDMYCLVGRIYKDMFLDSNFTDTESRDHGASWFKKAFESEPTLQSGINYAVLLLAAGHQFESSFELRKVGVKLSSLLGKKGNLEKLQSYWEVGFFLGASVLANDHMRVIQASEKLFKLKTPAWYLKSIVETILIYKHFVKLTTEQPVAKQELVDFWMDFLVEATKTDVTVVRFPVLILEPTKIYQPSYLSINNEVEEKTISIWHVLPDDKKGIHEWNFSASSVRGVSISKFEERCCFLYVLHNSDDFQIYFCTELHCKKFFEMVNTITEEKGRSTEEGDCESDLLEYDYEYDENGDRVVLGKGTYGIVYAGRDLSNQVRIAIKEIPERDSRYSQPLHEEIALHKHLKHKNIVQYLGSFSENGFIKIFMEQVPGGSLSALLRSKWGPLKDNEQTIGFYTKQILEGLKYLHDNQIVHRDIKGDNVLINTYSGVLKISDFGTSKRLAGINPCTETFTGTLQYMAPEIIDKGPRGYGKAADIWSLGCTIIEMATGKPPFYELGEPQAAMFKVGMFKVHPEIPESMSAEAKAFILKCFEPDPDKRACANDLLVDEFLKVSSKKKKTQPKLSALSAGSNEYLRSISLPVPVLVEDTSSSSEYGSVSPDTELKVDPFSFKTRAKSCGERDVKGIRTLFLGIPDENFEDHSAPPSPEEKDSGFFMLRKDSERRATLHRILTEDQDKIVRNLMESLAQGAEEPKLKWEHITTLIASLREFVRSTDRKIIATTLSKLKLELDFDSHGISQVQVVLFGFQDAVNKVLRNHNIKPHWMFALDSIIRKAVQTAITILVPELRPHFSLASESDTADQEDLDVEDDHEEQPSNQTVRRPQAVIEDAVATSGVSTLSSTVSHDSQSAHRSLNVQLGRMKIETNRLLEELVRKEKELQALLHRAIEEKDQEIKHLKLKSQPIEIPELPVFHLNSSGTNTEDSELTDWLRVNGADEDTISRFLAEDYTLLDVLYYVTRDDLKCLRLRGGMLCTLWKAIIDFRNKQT
The assay can be described thus: Inhibition of full-length human ASK1 expressed in HEK293T cells assessed as reduction in autophosphorylation of ASK1 at […] residue incubated for 1 hr. The format is cell-based.

Assay [6] addresses 5-hydroxytryptamine receptor 2B (Homo sapiens, UniProt P41595). The assay can be described thus: Inhibition of 5HT2B receptor (unknown origin).
The target of assay [7] is T2, Mitogen-activated protein kinase kinase kinase 5. The assay can be described thus: Inhibition of ASK1 (unknown origin) using myelin basic protein as substrate preincubated for 20 mins followed by 33P-ATP addition and measured after 2 hrs.

Sequence of 5-hydroxytryptamine receptor 2B (P41595 whole entry): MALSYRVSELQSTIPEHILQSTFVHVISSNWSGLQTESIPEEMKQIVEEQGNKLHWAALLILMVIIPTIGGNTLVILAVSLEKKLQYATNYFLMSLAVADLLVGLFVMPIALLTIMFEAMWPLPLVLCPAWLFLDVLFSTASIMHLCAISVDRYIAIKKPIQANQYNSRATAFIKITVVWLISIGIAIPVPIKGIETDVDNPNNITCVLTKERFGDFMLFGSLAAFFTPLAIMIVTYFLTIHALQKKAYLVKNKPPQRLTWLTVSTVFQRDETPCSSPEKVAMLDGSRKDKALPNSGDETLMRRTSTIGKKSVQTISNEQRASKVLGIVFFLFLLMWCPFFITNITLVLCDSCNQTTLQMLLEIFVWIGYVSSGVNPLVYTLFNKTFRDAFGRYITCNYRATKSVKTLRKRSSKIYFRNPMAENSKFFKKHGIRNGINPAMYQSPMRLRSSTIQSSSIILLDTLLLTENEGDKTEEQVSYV

Turning to `COc1ncc(F)cc1C(=O)Nc1cccc(-c2nncn2[C@@H](C)C(F)(F)F)n1`, the inhibition result in assay [1], in assay [2] and in assay [4] was “Active” each time. For the same compound, the IC50 in assay [3] is over 1000 nM; in assay [5] it was 25 nM; in assay [6] it was over 1000 nM; in assay [7], 7 nM.

As a reminder, the IC50 is the concentration that gives 50% inhibition.
